IC50 data for 15 molecules are collected here from patent US8367838B2, “Amines or amino alcohols as GLYT1 inhibitors” (Hoffmann-La Roche Inc., priority 2009, dated 2013).

The target in this experiment is T1, mGlyT-1b (Mus musculus, UniProt P28571).
T1 construct: host or cells: Flp-in-CHO
T1 sequence (P28571 1-651 isoform P28571-2): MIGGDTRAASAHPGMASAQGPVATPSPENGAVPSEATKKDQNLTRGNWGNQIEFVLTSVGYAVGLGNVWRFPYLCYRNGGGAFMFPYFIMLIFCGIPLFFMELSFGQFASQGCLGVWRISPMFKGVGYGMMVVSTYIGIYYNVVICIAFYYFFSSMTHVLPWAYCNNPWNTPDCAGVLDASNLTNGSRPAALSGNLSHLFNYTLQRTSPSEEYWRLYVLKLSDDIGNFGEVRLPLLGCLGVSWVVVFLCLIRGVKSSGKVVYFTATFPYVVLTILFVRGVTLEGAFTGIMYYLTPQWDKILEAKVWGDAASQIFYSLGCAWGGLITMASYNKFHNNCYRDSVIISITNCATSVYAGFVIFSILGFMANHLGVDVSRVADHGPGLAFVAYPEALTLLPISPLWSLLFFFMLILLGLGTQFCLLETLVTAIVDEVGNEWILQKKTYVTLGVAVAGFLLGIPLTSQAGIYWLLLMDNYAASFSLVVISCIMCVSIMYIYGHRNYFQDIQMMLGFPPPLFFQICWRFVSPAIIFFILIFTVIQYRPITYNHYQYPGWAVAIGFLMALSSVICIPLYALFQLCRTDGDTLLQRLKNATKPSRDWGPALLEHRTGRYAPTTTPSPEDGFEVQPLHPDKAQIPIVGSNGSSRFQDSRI
Briefly: Glycine uptake inhibition assay (mGlyT-1b), [3H]-glycine uptake in transfected Flp-in-CHO cells. The following applies: Flp-in-CHO cells transfected with mGlyT-1b cDNA; [3H]-glycine 60 nM and 25 μM non-radioactive glycine; 20 min preincubation at 22° C.; read-out: IC50 (μM) at GlyT-1; Ic50 (hglyt1b). The experiment is classed as cell-based. A digest of the protocol: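 Flp-in CHO cells stably expressing mouse GlyT-1b were preincubated 20 min at 22 °C with inhibitor in pH 7.4 Hepes-Tris buffer. Uptake was then run with 60 nM [3H]-glycine plus 25 μM unlabeled glycine, with 10 mM glycine defining nonspecific uptake. Cell radioactivity was counted by scintillation to derive IC50.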
`CC(=O)Nc1cccc(-c2ccc([C@@H](O)[C@@H](N)c3ccc(Cl)cc3)cc2)c1` (racemic) [Example 67, rac-erythro-N-[4′-[2-Amino-2-(4-chloro-phenyl)-1-hydroxy-ethyl]-biphenyl-3-yl]-acetamide]: the IC50 was 0.173 µM. Regarding `N[C@@H](c1ccc(Cl)cc1)[C@H](O)c1ccc(-c2ccccc2F)cc1` (racemic) [Example 68, rac-erythro-2-Amino-2-(4-chloro-phenyl)-1-(2′-fluoro-biphenyl-4-yl)-ethanol], the IC50 turned out to be 0.18 µM. Take `Nc1ccc(-c2ccc([C@@H](O)[C@@H](N)c3ccc(Cl)cc3)cc2)cn1` (racemic) [Example 69, rac-erythro-2-Amino-1-[4-(6-amino-pyridin-3-yl)-phenyl]-2-(4-chloro-phenyl)-ethanol]: the IC50 was 0.217 µM. Next, `N[C@@H](c1ccc(Cl)cc1)[C@H](O)c1ccc(-c2ccsc2)cc1` (racemic) [Example 70, rac-erythro-2-Amino-2-(4-chloro-phenyl)-1-(4-thiophen-3-yl-phenyl)-ethanol]: 0.297 µM; `Cc1cccc(-c2ccc([C@@H](O)[C@@H](N)c3ccc(Cl)cc3)cc2)c1` (racemic) [Example 71, rac-erythro-2-Amino-2-(4-chloro-phenyl)-1-(3′-methyl-biphenyl-4-yl)-ethanol]: 0.342 µM; `COc1cccc(-c2ccc([C@@H](O)[C@@H](N)c3ccc(Cl)cc3)cc2)c1` (racemic) [Example 72, rac-erythro-2-Amino-2-(4-chloro-phenyl)-1-(3′-methoxy-biphenyl-4-yl)-ethanol]: 0.385 µM.

In the case of `N[C@@H](c1ccc(Cl)cc1)[C@H](O)c1ccc(-c2ccccc2Cl)cc1` (racemic) [Example 73, rac-erythro-2-Amino-1-(2′-chloro-biphenyl-4-yl)-2-(4-chloro-phenyl)-ethanol], the IC50 was 0.462 µM.

Regarding `N[C@@H](c1ccc(Cl)cc1)[C@H](O)c1ccc(-c2cccc(Cl)c2)cc1` (racemic) [Example 74, rac-erythro-2-Amino-1-(3′-chloro-biphenyl-4-yl)-2-(4-chloro-phenyl)-ethanol], the IC50 was found to be 0.544 µM.

Turning to `Cc1nc(C)c(-c2ccc([C@@H](O)[C@@H](N)c3ccc(Cl)cc3)cc2)s1` (racemic) [Example 75, rac-erythro-2-Amino-2-(4-chloro-phenyl)-1-[4-(2,4-dimethyl-thiazol-5-yl)-phenyl]-ethanol], the IC50 turned out to be 0.582 µM. As for `Cc1ccccc1-c1ccc([C@@H](O)[C@@H](N)c2ccc(Cl)cc2)cc1` (racemic) [Example 76, rac-erythro-2-Amino-2-(4-chloro-phenyl)-1-(2′-methyl-biphenyl-4-yl)-ethanol], the IC50 was 0.642 µM. With `COc1ccc(-c2ccc([C@@H](O)[C@@H](N)c3ccc(Cl)cc3)cc2)cn1` (racemic) [Example 77, rac-erythro-2-Amino-2-(4-chloro-phenyl)-1-[4-(6-methoxy-pyridin-3-yl)-phenyl]-ethanol], the IC50 came out at 0.814 µM. Consider `N[C@@H](c1ccc(Cl)cc1)[C@H](O)c1ccc(-c2cccc(OC(F)(F)F)c2)cc1` (racemic) [Example 78, rac-erythro-2-Amino-2-(4-chloro-phenyl)-1-(3′-trifluoromethoxy-biphenyl-4-yl)-ethanol], for which the IC50 was 0.88 µM. With `N[C@@H](c1ccc(Cl)cc1)[C@H](O)c1ccc(-c2cccc(C(F)(F)F)c2)cc1` (racemic) [Example 79, rac-erythro-2-Amino-2-(4-chloro-phenyl)-1-(3′-trifluoromethyl-biphenyl-4-yl)-ethanol], the IC50 stood at 0.93 µM. Regarding `N[C@@H](c1ccc(Cl)cc1)[C@H](O)c1ccc(N2CCOCC2)nc1` (racemic) [Example 80, rac-erythro-2-Amino-2-(4-chloro-phenyl)-1-(6-morpholin-4-yl-pyridin-3-yl)-ethanol], the IC50 is 1.04 µM. In the case of `N[C@@H](c1ccc(Cl)c(Cl)c1)[C@H](O)c1ccc(-c2cccnc2)cc1` (racemic) [Example 81, rac-erythro-2-Amino-2-(3,4-dichloro-phenyl)-1-(4-pyridin-3-yl-phenyl)-ethanol], the IC50 was 0.031 µM.
